Literature values as cited in patent US20150237898A1, “STEVIOSIDE BLENDS” (Cargill, Incorporated, priority 2012, published 2015).
Entries after “also recorded” stand apart in the source; their conditions may differ.

Details: literature

Structure (SMILES) | sweetening power / sweetness compared with other glycosides | bitterness compared with other glycosides
C=C1C[C@@]23CC[C@H]4[C@@](C)(CCC[C@@]4(C)C(=O)O[C@@H]4O[C@H](CO)[C@@H](O)[C@H](O)[C@H]4O)[C@@H]2CC[C@]1(O[C@@H]1O[C@H](CO)[C@@H](O)[C@H](O[C@@H]2O[C@H](CO)[C@@H](O)[C@H](O)[C@H]2O)[C@H]1O[C@@H]1O[C@H](CO)[C@@H](O)[C@H](O)[C@H]1O)C3 [Reb A, rebaudioside A] | highest sweetening power of all the glycosides; also recorded: more potent and more pleasant tasting than stevioside | –
C=C1C[C@@]23CC[C@H]4[C@@](C)(CCC[C@@]4(C)C(=O)O[C@@H]4O[C@H](CO)[C@@H](O)[C@H](O)[C@H]4O)[C@@H]2CC[C@]1(O[C@@H]1O[C@H](CO)[C@@H](O)[C@H](O)[C@H]1O[C@@H]1O[C@H](CO)[C@@H](O)[C@H](O)[C@H]1O)C3 [stevioside] | much less sweet | much more bitter than Reb A and other glycosides
